Data set [1] relates to PC-12 cells. The data set is described as follows: Cell viability within polyalditol-acrylate redox components (Live/Dead Viability/Cytotoxicity Kit). The following applies: 15 min. The method, then: Cell suspensions were prepared as follows: PC-12 cells (ATCC; passage 5; 75% confluency) were harvested from a T-75 flask using Trypsin-EDTA for 2 minutes. The cells were placed in a 15 mL polyethylene conical (VWR) and centrifuged in F-12k media without serum for 4 minutes at 500 rpm. The cells were counted using a hemocytometer, centrifuged for 4 minutes at 500 rpm, and resuspended at 600,000 cells/mL in sterile PBS.
In order to determine the effect of individual components of the matrix forming compositions on cell viability, solutions A-G were independently mixed with PC-12 cells. 50 uL of cell suspension was added to 350 uL of solutions A-G (Table 7). After a 15 minute incubation, cell viability was assessed using a Live/Dead™ Viability/Cytotoxicity Kit (cat.# L3224; Molecular Probes, Eugene, Oreg.).
The effect of a formed matrix on cell viability was also tested. To form the PD-A matrix, solution #1 (200 mg PD-A, 10 uL TEMED, 20 uL 1N HCl, 470 uL PBS) was added in the amount of 200 uL to a 1.6 ml eppendorf (VWR). Solution #2 (400 mg PD-A, 10 mg Potassium persulfate, 75K PC-12 cells, 500 uL PBS) was added in the amount of 200 uL to solution #1 in the eppendorf and mixed for 10 seconds. After a 15 minute incubation, cell viability was assessed using the Live/Dead™ Viability/Cytotoxicity Kit.

For the molecule `N.N.O=S(=O)(O)OOS(=O)(=O)O` [Ammonium persulfate], the “Cell viability (%)” value in data set [1] (10 mg/ml in PBS) and in data set [1] (120 mg/ml in PBS) was 90% each time. What is called melting point is the temperature of the solid-liquid transition. `O=C(O)/C=C\C(=O)NCCCCCC(=O)O` returned a melting point of 160 to 165 °C. With `O=S(=O)([O-])OOS(=O)(=O)[O-].[K+].[K+]` [Potassium persulfate], in data set [1] (10 mg/ml in PBS), the “Cell viability (%)” value is given as 90%.

On to `O=S(=O)([O-])OOS(=O)(=O)[O-].[Na+].[Na+]` [Sodium persulfate], for which the “Cell viability (%)” value in data set [1] (5 mg/ml in PBS) was 90%.

The values above are taken from US20070071792A1, “In VIVO formed matrices including natural biodegradale polysaccharides and ophthalmic uses thereof” (priority 2005, published 2007).
